{"source": "ChEMBL document CHEMBL1130502", "about": "“Lipopeptide antifungal agents: Amine conjugates of the semi-synthetic pneumocandins L-731,373 and L-733,560” (Bioorg Med Chem Lett, 1997)", "key": {"Mus musculus [1]": {"organism": "Mus musculus", "assay": "Percentage of mice with complete eradication of candida in kidneys", "type": "functional, Kidney"}, "Mus musculus [2]": {"organism": "Mus musculus", "assay": "[…] anti-candida activity expressed as ED99.9 in a mouse model of disseminated candidiasis (TOKA)", "type": "functional"}, "1,3-beta-glucan synthase": {"biological_target": "1,3-beta-glucan synthase (Candida glabrata, UniProt F5BCZ9)", "sequence (F5BCZ9 whole entry)": "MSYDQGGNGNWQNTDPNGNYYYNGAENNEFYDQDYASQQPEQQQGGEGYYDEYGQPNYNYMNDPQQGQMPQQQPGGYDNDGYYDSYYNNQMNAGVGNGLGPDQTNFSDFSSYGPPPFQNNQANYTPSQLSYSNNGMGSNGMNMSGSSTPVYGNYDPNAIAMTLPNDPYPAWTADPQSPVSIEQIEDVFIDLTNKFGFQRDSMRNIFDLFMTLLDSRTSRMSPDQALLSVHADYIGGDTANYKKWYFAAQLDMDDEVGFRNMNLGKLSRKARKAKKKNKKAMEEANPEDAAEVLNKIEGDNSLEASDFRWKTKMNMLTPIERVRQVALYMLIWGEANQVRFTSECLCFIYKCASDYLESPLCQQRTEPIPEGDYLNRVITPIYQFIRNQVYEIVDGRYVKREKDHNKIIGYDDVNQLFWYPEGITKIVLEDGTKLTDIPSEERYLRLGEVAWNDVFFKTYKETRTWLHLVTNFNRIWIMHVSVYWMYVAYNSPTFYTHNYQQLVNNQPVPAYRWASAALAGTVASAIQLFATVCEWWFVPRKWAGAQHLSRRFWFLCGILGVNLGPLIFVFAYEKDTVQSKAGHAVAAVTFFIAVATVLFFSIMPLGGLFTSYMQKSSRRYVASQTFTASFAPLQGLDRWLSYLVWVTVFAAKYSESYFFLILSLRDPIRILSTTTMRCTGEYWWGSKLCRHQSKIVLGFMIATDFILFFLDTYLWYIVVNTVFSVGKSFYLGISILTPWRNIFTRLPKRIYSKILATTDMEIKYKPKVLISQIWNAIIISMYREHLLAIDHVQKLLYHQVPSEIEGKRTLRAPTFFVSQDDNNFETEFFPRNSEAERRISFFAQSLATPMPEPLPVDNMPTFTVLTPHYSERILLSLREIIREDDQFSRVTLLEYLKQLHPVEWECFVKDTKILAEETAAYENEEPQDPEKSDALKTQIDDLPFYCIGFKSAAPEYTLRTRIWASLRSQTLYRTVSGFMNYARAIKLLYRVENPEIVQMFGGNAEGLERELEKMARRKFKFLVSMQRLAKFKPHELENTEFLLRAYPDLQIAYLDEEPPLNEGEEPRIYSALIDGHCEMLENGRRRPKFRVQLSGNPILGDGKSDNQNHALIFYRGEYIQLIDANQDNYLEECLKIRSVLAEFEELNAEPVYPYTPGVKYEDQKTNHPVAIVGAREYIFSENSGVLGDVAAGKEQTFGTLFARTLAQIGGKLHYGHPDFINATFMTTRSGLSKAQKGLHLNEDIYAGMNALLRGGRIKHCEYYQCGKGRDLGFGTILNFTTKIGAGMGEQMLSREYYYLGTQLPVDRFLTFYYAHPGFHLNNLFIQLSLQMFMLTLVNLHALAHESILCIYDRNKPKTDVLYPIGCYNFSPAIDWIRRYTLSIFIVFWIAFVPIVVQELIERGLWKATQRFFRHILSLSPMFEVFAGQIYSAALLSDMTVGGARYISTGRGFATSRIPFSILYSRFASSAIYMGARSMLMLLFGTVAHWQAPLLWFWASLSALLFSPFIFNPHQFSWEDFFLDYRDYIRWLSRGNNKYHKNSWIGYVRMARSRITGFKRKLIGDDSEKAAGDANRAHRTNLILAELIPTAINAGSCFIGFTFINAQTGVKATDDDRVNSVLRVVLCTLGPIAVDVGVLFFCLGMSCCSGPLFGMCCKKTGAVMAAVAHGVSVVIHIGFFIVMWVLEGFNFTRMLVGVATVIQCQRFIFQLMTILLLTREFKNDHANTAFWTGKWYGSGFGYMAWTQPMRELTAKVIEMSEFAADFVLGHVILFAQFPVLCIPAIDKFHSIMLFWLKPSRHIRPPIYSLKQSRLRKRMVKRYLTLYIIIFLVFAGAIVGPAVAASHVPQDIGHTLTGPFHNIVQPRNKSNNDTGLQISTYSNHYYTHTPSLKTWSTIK", "assay": "Inhibition of 1,3-beta-glucan synthase", "set-up": "species or system Candida glabrata CBS 138"}, "[3]": {"assay": "Acute toxicity in mice after intravenous administration", "details": "mouse, in vivo"}, "Nakaseomyces glabratus [4]": {"system": "Nakaseomyces glabratus", "assay": "Tested for in vitro minimum fungicidal concentration (MFC) against C. glabrata; 1-4", "type": "functional"}, "Cryptococcus neoformans [5]": {"system": "Cryptococcus neoformans", "assay": "Tested for in vitro minimum fungicidal concentration (MFC) against C. neoformans; 8-32", "type": "functional"}, "Kluyveromyces marxianus [6]": {"system": "Kluyveromyces marxianus", "assay": "Tested for in vitro minimum fungicidal concentration (MFC) againstC. pseudotropicalis; 0.25-1", "type": "functional"}, "Candida albicans [7]": {"system": "Candida albicans", "assay": "Tested for in vitro minimum fungicidal concentration (MFC) against C. albicans; 0.25-1", "type": "functional"}, "Candida tropicalis [8]": {"system": "Candida tropicalis", "assay": "Tested for in vitro minimum fungicidal concentration (MFC) against C. tropicalis; 0.25-1", "type": "functional"}, "Pichia kudriavzevii [9]": {"system": "Pichia kudriavzevii", "assay": "Tested for in vitro minimum fungicidal concentration (MFC) against C. krusei; 2-4", "type": "functional"}, "Clavispora lusitaniae [10]": {"system": "Clavispora lusitaniae", "assay": "Tested for in vitro minimum fungicidal concentration (MFC) against Candida lusitaniae 0.125-1", "type": "functional"}, "Candida albicans [11]": {"system": "Candida albicans", "assay": "Tested for minimum fungicidal concentration (MFC) against Candida albicans (MY 1055)", "type": "functional"}, "[12]": {"system": "Meyerozyma guilliermondii", "assay": "Tested for in vitro minimum fungicidal concentration (MFC) against Candida guilliermondii 1-16", "type": "functional"}, "Mus musculus [13]": {"system": "Mus musculus", "assay": "In vivo effective intraperitoneal dose to achieve least 50% survival in a mouse model of disseminated aspergillosis", "type": "functional", "details": "ip"}, "Candida parapsilosis [14]": {"system": "Candida parapsilosis", "assay": "Tested for in vitro minimum fungicidal concentration (MFC) against C. parapsilosis; 0.25-1", "type": "functional"}, "[15]": {"system": "Meyerozyma guilliermondii", "assay": "Tested for in vitro minimum fungicidal concentration (MFC) against C. guilliermondii; 0.5-4", "type": "functional"}, "Candida tropicalis [16]": {"system": "Candida tropicalis", "assay": "Tested for in vitro minimum fungicidal concentration (MFC) against C. tropicalis; 0.06-1", "type": "functional"}, "Clavispora lusitaniae [17]": {"system": "Clavispora lusitaniae", "assay": "Tested for in vitro minimum fungicidal concentration (MFC) against C. lusitaniae; 0.06-0.5", "type": "functional"}, "Nakaseomyces glabratus [18]": {"system": "Nakaseomyces glabratus", "assay": "Tested for in vitro minimum fungicidal concentration (MFC) against C. glabrata; 0.5-1", "type": "functional"}, "Kluyveromyces marxianus [19]": {"system": "Kluyveromyces marxianus", "assay": "Tested for in vitro minimum fungicidal concentration (MFC) against C. pseudotropicalis; 0.06-0.5", "type": "functional"}, "Candida albicans [20]": {"system": "Candida albicans", "assay": "Tested for in vitro minimum fungicidal concentration (MFC) against C. albicans; 0.03-0.5", "type": "functional"}, "Pichia kudriavzevii [21]": {"system": "Pichia kudriavzevii", "assay": "Tested for in vitro minimum fungicidal concentration (MFC) against C. krusei; 1-2", "type": "functional"}, "Nakaseomyces glabratus [22]": {"system": "Nakaseomyces glabratus", "assay": "Tested for in vitro minimum fungicidal concentration (MFC) against C. glabrata; 0.125-0.5", "type": "functional"}, "Kluyveromyces marxianus [23]": {"system": "Kluyveromyces marxianus", "assay": "Tested for in vitro minimum fungicidal concentration (MFC) against C. pseudotropicalis; 0.125-0.5", "type": "functional"}, "Clavispora lusitaniae [24]": {"system": "Clavispora lusitaniae", "assay": "Tested for in vitro minimum fungicidal concentration (MFC) against C. lusitaniae; 0.5-2", "type": "functional"}, "[25]": {"system": "Meyerozyma guilliermondii", "assay": "Tested for in vitro minimum fungicidal concentration (MFC) against C. guilliermondii; 0.125-0.5", "type": "functional"}, "Candida parapsilosis [26]": {"system": "Candida parapsilosis", "assay": "Tested for in vitro minimum fungicidal concentration (MFC) against C. parapsilosis; 0.5-1", "type": "functional"}, "Candida tropicalis [27]": {"system": "Candida tropicalis", "assay": "Tested for in vitro minimum fungicidal concentration (MFC) against C. tropicalis; 0.25-0.5", "type": "functional"}, "Pichia kudriavzevii [28]": {"system": "Pichia kudriavzevii", "assay": "Tested for in vitro minimum fungicidal concentration (MFC) against C. krusei; 0.25-0.5", "type": "functional"}, "Candida albicans [29]": {"system": "Candida albicans", "assay": "Tested for in vitro minimum fungicidal concentration (MFC) against C. albicans; 0.06-0.5", "type": "functional"}, "Cryptococcus neoformans [30]": {"system": "Cryptococcus neoformans", "assay": "Tested for in vitro minimum fungicidal concentration (MFC) against C. neoformans; 0.125-0.5", "type": "functional"}}, "data": [{"compound": "CCC(C)CC(C)CCCCCCCCC(=O)NC1C[C@@H](O)[C@@H](OCCN)NC(=O)C2CN(C[C@@H]2O)C(=O)[C@H]([C@H](O)CCNC(=O)[C@@H](N)CCCN)NC(=O)[C@H]([C@H](O)[C@@H](O)c2ccc(O)cc2)NC(=O)C2C[C@@H](O)CN2C(=O)[C@H]([C@@H](C)O)NC1=O", "note": "(some centres undefined)", "values": [{"measurement": "Sterilized", "setting": "Mus musculus [1]", "result": 70, "unit": "%"}, {"measurement": "ED99.9", "setting": "Mus musculus [2]", "result": 0.09, "unit": "mg/kg"}, {"measurement": "IC50", "setting": "1,3-beta-glucan synthase", "result": 1.5, "unit": "nM"}, {"measurement": "Dose", "setting": "[3]", "result": 80, "unit": "mg/kg"}, {"measurement": "MFC90", "setting": "Nakaseomyces glabratus [4]", "result": 2, "unit": "µg/mL"}, {"measurement": "MFC90", "setting": "Cryptococcus neoformans [5]", "result": 32, "unit": "µg/mL"}, {"measurement": "MFC90", "setting": "Kluyveromyces marxianus [6]", "result": 1, "unit": "µg/mL"}, {"measurement": "MFC90", "setting": "Candida albicans [7]", "result": 1, "unit": "µg/mL"}, {"measurement": "MFC90", "setting": "Candida tropicalis [8]", "result": 1, "unit": "µg/mL"}, {"measurement": "MFC90", "setting": "Pichia kudriavzevii [9]", "result": 4, "unit": "µg/mL"}, {"measurement": "MFC90", "setting": "Clavispora lusitaniae [10]", "result": 0.5, "unit": "µg/mL"}, {"measurement": "MFC", "setting": "Candida albicans [11]", "result": "< 0.06", "unit": "µg/mL"}, {"measurement": "MFC90", "setting": "[12]", "result": 8, "unit": "µg/mL"}, {"measurement": "ED50", "setting": "Mus musculus [13]", "result": 0.03, "unit": "mg/kg"}, {"measurement": "MFC90", "setting": "Candida parapsilosis [14]", "result": 1, "unit": "µg/mL"}]}, {"compound": "CCC(C)CC(C)CCCCCCCCC(=O)NC1C[C@@H](O)[C@@H](OCCN)NC(=O)C2CN(C[C@@H]2O)C(=O)[C@H]([C@H](O)CCN)NC(=O)[C@H]([C@H](O)[C@@H](O)c2ccc(O)cc2)NC(=O)C2C[C@@H](O)CN2C(=O)[C@H]([C@@H](C)O)NC1=O", "note": "(some centres undefined)", "values": [{"measurement": "MFC90", "setting": "[15]", "result": 4, "unit": "µg/mL"}, {"measurement": "MFC90", "setting": "Candida tropicalis [16]", "result": 0.5, "unit": "µg/mL"}, {"measurement": "Sterilized", "setting": "Mus musculus [1]", "result": 80, "unit": "%"}, {"measurement": "MFC90", "setting": "Clavispora lusitaniae [17]", "result": 0.5, "unit": "µg/mL"}, {"measurement": "ED99.9", "setting": "Mus musculus [2]", "result": 0.09, "unit": "mg/kg"}, {"measurement": "MFC90", "setting": "Nakaseomyces glabratus [18]", "result": 1, "unit": "µg/mL"}, {"measurement": "IC50", "setting": "1,3-beta-glucan synthase", "result": 1, "unit": "nM"}, {"measurement": "Dose", "setting": "[3]", "result": 30, "unit": "mg/kg"}, {"measurement": "MFC90", "setting": "Cryptococcus neoformans [5]", "result": 32, "unit": "µg/mL"}, {"measurement": "MFC", "setting": "Candida albicans [11]", "result": 0.125, "unit": "µg/mL"}, {"measurement": "MFC90", "setting": "Kluyveromyces marxianus [19]", "result": 0.5, "unit": "µg/mL"}, {"measurement": "ED50", "setting": "Mus musculus [13]", "result": 0.03, "unit": "mg/kg"}, {"measurement": "MFC90", "setting": "Candida albicans [20]", "result": 0.5, "unit": "µg/mL"}, {"measurement": "MFC90", "setting": "Pichia kudriavzevii [21]", "result": 1, "unit": "µg/mL"}, {"measurement": "MFC90", "setting": "Candida parapsilosis [14]", "result": 0.5, "unit": "µg/mL"}]}, {"compound": "C[C@@H]1[C@H](O)[C@@H](C)/C=C/C=C/C=C/C=C/C=C/C=C/C=C/[C@H](O[C@@H]2O[C@H](C)[C@@H](O)[C@H](N)[C@@H]2O)C[C@@H]2O[C@](O)(C[C@@H](O)C[C@@H](O)[C@H](O)CC[C@@H](O)C[C@@H](O)CC(=O)O[C@H]1C)C[C@H](O)[C@H]2C(=O)O", "note": "[AMPHOTERICIN B]", "values": [{"measurement": "MFC90", "setting": "Nakaseomyces glabratus [22]", "result": 0.5, "unit": "µg/mL"}, {"measurement": "MFC90", "setting": "Kluyveromyces marxianus [23]", "result": 0.5, "unit": "µg/mL"}, {"measurement": "MFC90", "setting": "Clavispora lusitaniae [24]", "result": 2, "unit": "µg/mL"}, {"measurement": "MFC90", "setting": "[25]", "result": 0.5, "unit": "µg/mL"}, {"measurement": "MFC90", "setting": "Candida parapsilosis [26]", "result": 1, "unit": "µg/mL"}, {"measurement": "MFC90", "setting": "Candida tropicalis [27]", "result": 0.5, "unit": "µg/mL"}, {"measurement": "MFC90", "setting": "Pichia kudriavzevii [28]", "result": 0.5, "unit": "µg/mL"}, {"measurement": "MFC90", "setting": "Candida albicans [29]", "result": 0.25, "unit": "µg/mL"}, {"measurement": "MFC90", "setting": "Cryptococcus neoformans [30]", "result": 0.5, "unit": "µg/mL"}]}]}
